What was measured:
[1] = Solubility in water; format: physicochemical
[2] = target: T1, human NK-1 receptors (Homo sapiens, UniProt P25103); experiment: Binding power of the test substances to NK-1 receptors in vitro ([3H]-Substance P displacement, CHO cell membranes); details: negative common logarithm of Ki calculated from IC50
T1 construct: expressed in transfected cells; host or cells: CHO cells (membrane preparation)
Method: The affinity of the test substances to human NK-1 receptors was measured in vitro. The inhibition of the binding of the physiological neurokinin (Substance P) to neurokinin-1 receptors was determined.
The receptor binding studies were performed with [^3H]-Substance P as ligand. For the binding test, different samples of a membrane preparation of CHO cells (=egg cells of the Chinese hamster, […]), which express the human NK-1 receptor (“Accession Number” of the associated nucleic acid sequence=M74290; “Accession Number” of the associated protein sequence=P25103; cf. Takeda, Y.; Chou, K. B., Takeda, J.; Sachais, B. S. and Krause, J. E; Biochemical and Biophysical Research Communications, 179(3) (1991) 1232-1240), were incubated with a solution of the marked ligand, with the incubation mixtures containing no test substance or additions of different concentrations of test substance. Then, separation of bound and free ligands was performed in each of the samples with the aid of glass-fibre filtration. The fraction remaining in the filter was washed several times with buffer solution and then the radioactivity of the fraction remaining in the filter was measured using a beta scintillation counter.
For the compounds of Examples 1 and 8 to 65, the affinity to human NK-1 receptors was determined in each case by a single measurement of the test substances in a concentration of 10^−7 mol/l.
For the compounds of Examples 2 and 4-6, that concentration which effects half maximum displacement of the bound ligand was determined as IC50 of the respective test substance. From this, the corresponding inhibition constant (Ki value) of the test substance was calculated, and was stated as the negative common logarithm of the Ki value (=pKi value). The pKi value is a measurement of the affinity of the test substances to human NK-1 receptors.

[3] = target: T2, NK-1 receptors (Cavia porcellus, UniProt P30547); experiment: Functional NK-1 antagonism on isolated guinea pig aorta rings (inhibition of Substance P-induced relaxation); format: cell-based; details: half maximum inhibition of relaxation of tone caused by 0.01 μmol Substance P; phenylephrine-tonicised guinea pig aorta
T2 construct: isolated ring preparations, kept in an oxygenated nutrient solution, of the aortas of Pirbright-White guinea pigs; from tissue; host or cells: isolated aorta rings of Pirbright-White guinea pigs
T2 sequence (P30547 whole entry): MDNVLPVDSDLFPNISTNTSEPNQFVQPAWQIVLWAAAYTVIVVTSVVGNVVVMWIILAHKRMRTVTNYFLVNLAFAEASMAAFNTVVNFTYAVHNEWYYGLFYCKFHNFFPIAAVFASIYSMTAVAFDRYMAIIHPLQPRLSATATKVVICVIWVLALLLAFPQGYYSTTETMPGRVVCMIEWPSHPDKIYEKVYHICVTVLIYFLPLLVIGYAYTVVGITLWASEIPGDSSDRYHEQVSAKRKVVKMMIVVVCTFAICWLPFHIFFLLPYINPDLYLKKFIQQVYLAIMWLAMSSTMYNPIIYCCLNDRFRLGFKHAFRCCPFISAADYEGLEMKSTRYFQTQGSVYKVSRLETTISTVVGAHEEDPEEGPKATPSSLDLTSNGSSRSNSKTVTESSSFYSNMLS
Method: The action antagonistic to NK-1 receptors of the test substances was measured in vitro on isolated ring preparations, kept in an oxygenated nutrient solution, of the aortas of Pirbright-White guinea pigs. The inhibition by the test substances of the relaxation of tone of the aorta preparations, caused after stimulation with the NK-1 agonist Substance P, was determined.
In order to measure the contraction of the vessel muscles, the preparations were fixed to a hook, joined by a thread to a force measuring apparatus and the contractions were recorded in each case on a plotter. The aorta preparations were tonicised with phenylephrine. Then before and after the administration of the test substance the NK-1 receptors of the preparations were stimulated with 0.01 μmol Substance P, which caused relaxation of the tone. The relaxations before and after the administration of the test substance were quantified in percent. The effective concentration of the half maximum inhibition of the relaxation of the tone (=EC50) was calculated. The negative common logarithm of the EC50 value (=pEC50) was given as characteristic variable. The pEC50 value is a measurement of the functional effectiveness of the test substances on NK-1 receptors.

[4] = tested on: basal blood pressure; experiment: Vasodepressive effects based on calcium-antagonistic properties (action on basal blood pressure); format: in vivo; details: guinea pig, i.v. doses of up to 0.1 μmol/kg and p.o. doses of up to 3.2 μmol/kg
Method: The arterial catheter served to measure the blood pressure. The administration of Substance P and, in the case of i.v. administration, also the administration of the test substance, was effected by means of the venous access. After a 20-minute equilibration phase, 50 pmol/animal of Substance P were administered (bolus, i.v.) as a test stimulus. One minute after administration of the test stimulus, in each case the maximum drop in blood pressure induced thereby was determined as a control for the later stimulation of the NK-1 receptors by the test substance. Then the test substance was administered. For the i.v. investigation, the test substance was administered in metered doses of 0.01 to 0.1 μmol/kg. For the p.o. investigation, the test substance was administered in metered doses of 0.1 to 3.2 μmol/kg. Tylose or Tylose/ethanol was used as the vehicle for the p.o. investigations. Then, in each case the extent of the vasodepression inhibited by the test substance was measured, starting 1 minute after administration of test substance, up to 90 minutes after administration of test substance, at intervals of 15 minutes each time. The doses at which, dependent on the time, just 50% inhibition of the Substance P-induced vasodepression occurs due to the test substance were determined from these measured values as ED50 values. […]

[5] = tested on: gerbil foot tapping; experiment: Gerbil foot tapping test for CNS-permeable NK-1 antagonists; format: in vivo; details: doses of up to 30 mg/kg p.o.

T1 sequence (P25103 whole entry): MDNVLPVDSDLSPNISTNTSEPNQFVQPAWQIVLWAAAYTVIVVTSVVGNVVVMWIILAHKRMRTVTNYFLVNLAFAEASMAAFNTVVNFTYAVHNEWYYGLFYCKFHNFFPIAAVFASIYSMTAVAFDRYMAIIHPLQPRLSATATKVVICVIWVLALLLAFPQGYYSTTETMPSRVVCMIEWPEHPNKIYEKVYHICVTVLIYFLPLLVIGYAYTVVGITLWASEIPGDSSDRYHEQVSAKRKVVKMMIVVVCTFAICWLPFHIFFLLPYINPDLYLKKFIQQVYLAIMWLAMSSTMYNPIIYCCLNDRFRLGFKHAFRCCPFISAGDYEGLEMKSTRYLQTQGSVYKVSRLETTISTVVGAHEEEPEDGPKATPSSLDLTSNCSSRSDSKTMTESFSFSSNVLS

Row | Structure (SMILES) | solubility in water [1] | Ki [2] [nM] | EC50 [3] [nM] | vasodepression (action on basal blood pressure, calcium-antagonistic side-effect) [4] | typical effects of CNS-permeable NK-1 antagonists [5]
1 | Cl.Cl.O=C(c1cc(C(F)(F)F)cc(C(F)(F)F)c1)N1CCN(Cc2n[nH]nc2CN2CCOCC2)C[C@H]1Cc1c[nH]c2ccccc12 [(2R)-1-[3,5-bis(trifluoromethyl)benzoyl]-2-(1H-indol-3-ylmethyl)-4-{[5-(morpholinomethyl)-2H-1,2,3-triazol-4-yl]methyl}piperazine-dihydrochloride] | comparatively readily soluble in water |  |  |  | 
2 | O=C(c1cc(C(F)(F)F)cc(C(F)(F)F)c1)N1CCN(Cc2n[nH]nc2CN2CCOCC2)C[C@H]1Cc1c[nH]c2ccccc12 [Example 1, (2R)-1-[3,5-Bis(trifluoromethyl)benzoyl]-2-(1H-indol-3-ylmethyl)-4-{[5-(morpholinomethyl)-2H-1,2,3-triazol-4-yl]methyl}piperazine] |  |  | 1 | no significant vasodepression | did not exhibit any typical effects of CNS-permeable NK-1 antagonists
3 | O=C(c1cc(C(F)(F)F)cc(C(F)(F)F)c1)N1CCN(Cc2n[nH]nc2CN2CCNCC2)C[C@H]1Cc1c[nH]c2ccccc12 [Example 2] |  | 3.98 | 0.794 |  | 

Continued, in another order:

Row | solubility in water [1] | Ki [2] [nM] | EC50 [3] [nM] | Structure (SMILES) | vasodepression (action on basal blood pressure, calcium-antagonistic side-effect) [4] | typical effects of CNS-permeable NK-1 antagonists [5]
4 |  | 3.98 | 1.26 | CC(C)N(Cc1n[nH]nc1CN1CCN(C(=O)c2cc(C(F)(F)F)cc(C(F)(F)F)c2)[C@H](Cc2c[nH]c3ccccc23)C1)C(C)C [Example 6] |  | 
5 |  | 5.01 | 2 | CCN(CC)Cc1n[nH]nc1CN1CCN(C(=O)c2cc(C(F)(F)F)cc(C(F)(F)F)c2)[C@H](Cc2c[nH]c3ccccc23)C1 [Example 5] |  | 
6 |  |  | 3.98 | Cn1cc(C[C@@H]2CN(Cc3n[nH]nc3CN3CCOCC3)CCN2C(=O)c2cc(C(F)(F)F)cc(C(F)(F)F)c2)c2ccccc21 [Example 3] |  | 
7 |  | 5.01 | 2.51 | CN(C)Cc1n[nH]nc1CN1CCN(C(=O)c2cc(C(F)(F)F)cc(C(F)(F)F)c2)[C@H](Cc2c[nH]c3ccccc23)C1 [Example 4, (2R)-1-[3,5-Bis(trifluoromethyl)benzoyl]-2-(1H-indol-3-ylmethyl)-4-{[5-(dimethylaminomethyl)-2H-1,2,3-triazol-4-yl]methyl}piperazine] |  | 

— patent US6407106B1, “N-triazolylmethyl-piperazine compounds with neurokinin-receptor antagonist activity” (Solvay Pharmaceuticals GmbH, priority 2000, dated 2002)
